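Five concentrations, 48 hours, 96-well plates. Definition used: TGI = concentration required for complete inhibition of growth.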
Key:
Test in all cases: inhibition of tumour cell growth, NCI panel, 48 h
NCI-H460 lung = system: NCI-H460 lung
PC-3 prostate = system: PC-3 prostate
NCI-H522 lung = system: NCI-H522 lung
NCI/ADR-RES ovarian = system: NCI/ADR-RES ovarian
CCRF-CEM leukemia = system: CCRF-CEM leukemia
HOP-92 NSCLC = system: HOP-92 NSCLC
MOLT-4 leukemia = system: MOLT-4 leukemia
SNB-19 CNS = system: SNB-19 CNS
OVCAR-5 ovarian = system: OVCAR-5 ovarian
RXF 393 renal = system: RXF 393 renal

Row | SMILES | TGI (NCI-H460 lung) [µM] | TGI (PC-3 prostate) [µM] | TGI (NCI-H522 lung) [µM] | TGI (NCI/ADR-RES ovarian) [µM] | TGI (CCRF-CEM leukemia) [µM] | TGI (HOP-92 NSCLC) [µM] | TGI (MOLT-4 leukemia) [µM] | TGI (SNB-19 CNS) [µM] | TGI (OVCAR-5 ovarian) [µM] | TGI (RXF 393 renal) [µM]
1 | N#Cc1c(-c2ccc([N+](=O)[O-])cc2)c(C#N)c(=O)n(NS(=O)(=O)c2ccccc2)c1O | > 100 | > 100 | > 100 | > 100 | > 100 | > 100 | > 100 | 35.5 | > 100 | > 100
2 | COc1ccc([C@]23CCC4(OCC(C)(C)CO4)[C@H]4CON(O[C@H](O[C@@H]5CCCCC5C(C)(C)c5ccccc5)C2)[C@@H]43)cc1OC (stereo not given in full) | > 100 | > 100 | > 100 | > 100 | > 100 | > 100 | 53.1 | > 100 | > 100 | > 100
3 | Cc1ccc(C)c(COCCOCn2cc(N3CCOCC3)c(=O)[nH]c2=O)c1 | > 100 | > 100 | > 100 | > 100 | > 100 | > 100 | > 100 | > 100 | > 100 | > 100
4 | CC1=C(C(=O)OCCO[N+](=O)[O-])C(c2ccccc2[N+](=O)[O-])C(C(=O)OC(C)C)=C(C)N1 (stereo not given) | 34.2 | 23.2 | 30.5 | 51.7 | > 100 | 31.4 | > 100 | 39.6 | 30.4 | 30.3
5 | CCOC(=O)[C@@H](Cc1ccc(CCl)cc1)NC(C)=O | 43.2 | > 100 | 35.5 | 43.9 | > 100 | 43.6 | > 100 | 79.2 | 44.2 | 30.3
6 | O=C1CSC(c2c[nH]c3ccccc23)N1c1ccc(Cl)cc1Cl (stereo not given) | > 100 | > 100 | > 100 | > 100 | > 100 | > 100 | > 100 | > 100 | > 100 | > 100
7 | CC1(C)OCC(C2OC(C)(C)OC2[C@H]2O[C@@]3(O)[C@H]4[C@H](C=CC[C@@H]42)[C@@H](OCc2ccccc2)[C@H](OCc2ccccc2)[C@H]3OCc2ccccc2)O1 (stereo not given in full) | > 100 | > 100 | > 100 | > 100 | > 100 | > 100 | 44.3 | > 100 | > 100 | 82.1
8 | CC1=NN2C(=N)/C(=C/c3ccc(F)cc3)C(=O)N=C2S1 | > 100 | > 100 | > 100 | 28.5 | > 100 | > 100 | > 100 | > 100 | > 100 | > 100
9 | O=C1C=CC(=O)c2c(O)c(N3CCC[C@@H]3CO)c(Cl)c(O)c21 | 3.52 | 4.78 | 2.36 | 6.25 | 0.869 | 3.04 | 1.14 | 3.09 | 3.08 | 2.98
10 | CC(=O)Oc1ccn2nc(C)c(Br)c2c1 | > 100 | > 86.5 | 97.1 | > 100 | > 100 | > 100 | > 100 | > 100 | > 100 | > 100
11 | CCC1([N+](=O)[O-])CN(N=O)C1 | > 100 | > 100 | > 100 | > 100 | > 100 | > 100 | > 100 | > 100 | > 100 | > 100
12 | Clc1ccc(/C(=C/c2ccccc2)Cn2ccnc2)cc1 | > 100 | 94 | 57.6 | 66.6 | > 100 | 67.2 | > 100 | > 100 | > 100 | 50.7
13 | Cc1cccc2c1CC(Cc1ccccc1C(=O)O)C2=O (stereo not given) | > 100 | > 100 | > 100 | > 100 | > 100 | > 100 | > 100 | > 100 | > 100 | > 100
14 | NC(=O)NN=C1Cc2ccccc2C1 | > 100 | > 100 | > 100 | > 100 | > 100 | > 100 | > 100 | > 100 | > 100 | > 100
15 | N#C/C(C(=O)NCc1ccccc1)=C(/N)N1CCCC1 | > 100 | > 100 | > 100 | > 100 | > 100 | > 100 | > 100 | > 100 | > 100 | > 100
16 | COc1cc2c(cc1OCc1ccccc1)NC(=O)[C@@H]1CCCN1C2=O | > 100 | > 100 | > 100 | > 100 | > 100 | > 100 | > 100 | > 100 | > 100 | > 100
17 | CC(C)=CCC[C@@H](C)C1=C(Nc2ccccc2F)C(O)=C(C)C(=O)C1=O | > 100 | > 100 | 17.1 | > 23.8 | 3.9 | > 69.9 | > 67.8 | > 100 | > 100 | > 64.1
18 | CSc1ncc2c(n1)-c1ccccc1OC2NC1CC1 (stereo not given) | > 100 | > 100 | 82.5 | > 100 | > 100 | > 100 | > 100 | > 100 | > 100 | > 100

Source: PubChem BioAssay (NCI)
